Measured values published in ChEMBL document CHEMBL4396868, “Discovery of Potent, Selective, and Brain-Penetrant 1 H-Pyrazol-5-yl-1 H-pyrrolo[2,3- b]pyridines as Anaplastic Lymphoma Kinase (ALK) Inhibitors” (J Med Chem, 2019).

How the values were obtained:
[1] = target: T1, ALK tyrosine kinase receptor (Homo sapiens, UniProt Q9UM73); type: cell-based, HEK293
Description: Inhibition of recombinant human ALK expressed in HEK293 cells assessed as reduction in ALK autophosphorylation at Tyr1604 residue incubated for 60 mins by sandwich ELISA

[2] = target: High affinity nerve growth factor receptor (Homo sapiens, UniProt P04629); experiment: Inhibition of N-terminal GST-tagged human TrkA kinase domain (436 to 790 residues) expressed in baculovirus expression system using biotin-poly-GT as substrate pre-incubated for 5 mins followed by ATP addition and measured after 60 mins by alpha screen assay
Sequence of High affinity nerve growth factor receptor (P04629 whole entry, the tested form may be a part): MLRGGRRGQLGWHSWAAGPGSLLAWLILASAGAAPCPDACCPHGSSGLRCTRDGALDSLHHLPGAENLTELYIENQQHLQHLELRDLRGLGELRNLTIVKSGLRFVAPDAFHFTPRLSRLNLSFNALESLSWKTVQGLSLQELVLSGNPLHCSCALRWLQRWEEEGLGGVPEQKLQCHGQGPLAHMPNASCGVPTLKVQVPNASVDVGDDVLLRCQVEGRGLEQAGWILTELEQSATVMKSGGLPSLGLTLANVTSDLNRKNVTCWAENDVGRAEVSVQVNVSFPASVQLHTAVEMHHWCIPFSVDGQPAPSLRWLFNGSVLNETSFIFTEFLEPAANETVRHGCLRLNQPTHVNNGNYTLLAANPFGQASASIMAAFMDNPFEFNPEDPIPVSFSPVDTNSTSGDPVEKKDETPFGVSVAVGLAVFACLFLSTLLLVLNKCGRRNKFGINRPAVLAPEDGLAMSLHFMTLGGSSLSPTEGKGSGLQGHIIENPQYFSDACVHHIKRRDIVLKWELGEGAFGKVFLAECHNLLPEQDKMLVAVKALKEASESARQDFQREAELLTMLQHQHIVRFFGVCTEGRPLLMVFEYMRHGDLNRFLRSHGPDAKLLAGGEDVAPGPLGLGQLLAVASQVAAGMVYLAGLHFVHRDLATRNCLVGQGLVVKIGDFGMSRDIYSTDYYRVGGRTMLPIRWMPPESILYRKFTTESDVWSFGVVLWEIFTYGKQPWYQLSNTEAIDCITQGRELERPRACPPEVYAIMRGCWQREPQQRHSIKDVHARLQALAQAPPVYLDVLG

[3] = target: T1, ALK tyrosine kinase receptor
Description: Inhibition of human ALK kinase domain (1058 to 1620 residues) expressed in baculovirus expression system using biotin-poly-GT as substrate pre-incubated for 10 mins followed by ATP addition and measured after 60 mins by HTRF method

[4] = target: MDR1 (ABCB1, P-gp) (Homo sapiens, UniProt P08183); experiment: Substrate activity at human MDR1 expressed in pig LLC-PK1 cells assessed as efflux ratio of apparent permeability across basolateral to apical over apical to basolateral side at 10 uM after 2 hrs by LC/MS/MS analysis; type: ADME, cell-based
Sequence of MDR1 (ABCB1, P-gp) (P08183 whole entry, the tested form may be a part): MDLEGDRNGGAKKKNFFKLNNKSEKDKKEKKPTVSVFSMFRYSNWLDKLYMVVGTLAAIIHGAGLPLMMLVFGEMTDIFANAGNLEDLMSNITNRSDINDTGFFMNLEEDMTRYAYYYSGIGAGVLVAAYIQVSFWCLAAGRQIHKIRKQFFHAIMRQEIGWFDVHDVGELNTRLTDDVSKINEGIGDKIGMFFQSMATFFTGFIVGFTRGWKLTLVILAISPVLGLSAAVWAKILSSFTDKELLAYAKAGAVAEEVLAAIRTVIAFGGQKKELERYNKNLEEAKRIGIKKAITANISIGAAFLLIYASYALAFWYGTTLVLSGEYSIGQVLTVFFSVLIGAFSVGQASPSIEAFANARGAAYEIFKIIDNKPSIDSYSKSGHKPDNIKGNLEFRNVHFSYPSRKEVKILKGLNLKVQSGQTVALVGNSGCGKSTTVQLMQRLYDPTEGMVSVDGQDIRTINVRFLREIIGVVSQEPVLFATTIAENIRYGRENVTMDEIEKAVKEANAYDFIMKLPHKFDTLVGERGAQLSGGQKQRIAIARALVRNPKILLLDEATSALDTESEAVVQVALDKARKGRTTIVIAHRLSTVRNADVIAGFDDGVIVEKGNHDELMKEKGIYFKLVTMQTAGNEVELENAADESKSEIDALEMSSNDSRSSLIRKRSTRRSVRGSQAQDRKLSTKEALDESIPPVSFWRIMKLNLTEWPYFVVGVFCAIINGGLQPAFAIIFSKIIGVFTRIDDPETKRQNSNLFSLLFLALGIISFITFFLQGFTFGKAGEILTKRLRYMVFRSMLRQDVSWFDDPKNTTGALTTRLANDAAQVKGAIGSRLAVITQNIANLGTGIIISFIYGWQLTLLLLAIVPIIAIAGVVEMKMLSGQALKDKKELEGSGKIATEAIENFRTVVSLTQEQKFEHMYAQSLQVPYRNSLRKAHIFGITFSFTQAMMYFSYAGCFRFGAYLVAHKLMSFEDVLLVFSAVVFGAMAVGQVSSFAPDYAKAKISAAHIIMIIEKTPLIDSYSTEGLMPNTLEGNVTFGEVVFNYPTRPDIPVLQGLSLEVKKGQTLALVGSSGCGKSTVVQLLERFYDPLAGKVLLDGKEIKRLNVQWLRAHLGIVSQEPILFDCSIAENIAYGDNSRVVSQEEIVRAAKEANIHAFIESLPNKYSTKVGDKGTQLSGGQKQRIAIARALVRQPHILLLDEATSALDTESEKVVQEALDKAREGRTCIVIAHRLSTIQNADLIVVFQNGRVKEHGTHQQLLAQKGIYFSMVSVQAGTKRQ

[5] = species: Homo sapiens; experiment: Selectivity ratio of IC50 for N-terminal GST-tagged human TrkA kinase domain (436 to 790 residues) expressed in baculovirus expression system to IC50 for human ALK kinase domain (1058 to 1620 residues) expressed in baculovirus expression system

T1 sequence (Q9UM73 whole entry, the tested form may be a part): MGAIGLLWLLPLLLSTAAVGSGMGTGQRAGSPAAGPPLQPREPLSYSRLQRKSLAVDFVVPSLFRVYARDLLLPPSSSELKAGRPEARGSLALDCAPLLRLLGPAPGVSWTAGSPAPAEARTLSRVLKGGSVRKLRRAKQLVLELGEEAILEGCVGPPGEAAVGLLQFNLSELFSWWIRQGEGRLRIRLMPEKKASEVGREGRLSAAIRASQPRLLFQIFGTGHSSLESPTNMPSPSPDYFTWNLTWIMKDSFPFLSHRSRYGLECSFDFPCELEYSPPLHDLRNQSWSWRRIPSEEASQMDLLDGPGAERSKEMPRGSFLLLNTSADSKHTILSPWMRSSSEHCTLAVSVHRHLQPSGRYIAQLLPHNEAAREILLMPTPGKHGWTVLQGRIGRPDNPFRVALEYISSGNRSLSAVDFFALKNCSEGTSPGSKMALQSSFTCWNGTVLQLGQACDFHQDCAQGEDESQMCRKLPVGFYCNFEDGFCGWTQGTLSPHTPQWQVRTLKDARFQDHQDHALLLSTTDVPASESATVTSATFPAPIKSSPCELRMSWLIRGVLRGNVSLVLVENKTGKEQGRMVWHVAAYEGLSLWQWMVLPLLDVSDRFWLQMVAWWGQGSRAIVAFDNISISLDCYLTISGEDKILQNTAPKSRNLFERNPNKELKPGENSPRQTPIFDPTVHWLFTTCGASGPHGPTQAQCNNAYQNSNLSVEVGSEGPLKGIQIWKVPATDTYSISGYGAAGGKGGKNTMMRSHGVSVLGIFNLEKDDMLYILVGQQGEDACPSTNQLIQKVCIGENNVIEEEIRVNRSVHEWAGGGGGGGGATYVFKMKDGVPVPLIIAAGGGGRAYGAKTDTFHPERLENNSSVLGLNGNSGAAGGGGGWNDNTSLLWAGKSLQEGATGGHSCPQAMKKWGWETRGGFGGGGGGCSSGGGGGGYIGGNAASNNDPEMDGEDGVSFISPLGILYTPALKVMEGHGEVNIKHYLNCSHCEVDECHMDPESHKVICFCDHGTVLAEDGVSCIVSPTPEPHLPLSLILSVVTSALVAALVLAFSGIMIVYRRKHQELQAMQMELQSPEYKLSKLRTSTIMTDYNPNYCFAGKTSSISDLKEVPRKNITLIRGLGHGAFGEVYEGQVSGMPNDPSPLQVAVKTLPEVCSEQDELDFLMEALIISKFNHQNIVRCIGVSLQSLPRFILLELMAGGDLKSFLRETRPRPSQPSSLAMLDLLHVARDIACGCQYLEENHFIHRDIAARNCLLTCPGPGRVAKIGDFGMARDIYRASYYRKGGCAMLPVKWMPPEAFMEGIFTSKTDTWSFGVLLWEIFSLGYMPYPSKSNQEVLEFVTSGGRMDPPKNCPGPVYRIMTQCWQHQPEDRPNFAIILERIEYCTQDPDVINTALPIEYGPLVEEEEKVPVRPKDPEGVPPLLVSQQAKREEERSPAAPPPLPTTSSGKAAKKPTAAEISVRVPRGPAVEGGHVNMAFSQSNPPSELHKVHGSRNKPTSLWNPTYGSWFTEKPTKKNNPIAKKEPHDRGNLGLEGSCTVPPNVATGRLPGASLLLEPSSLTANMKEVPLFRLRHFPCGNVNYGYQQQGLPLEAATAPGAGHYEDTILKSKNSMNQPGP

IC50 [1] [nM]	IC50 [2] [nM]	IC50 [3] [nM]	efflux ratio at 2 h, 10 µM [4]	Ratio IC50 [5]	SMILES
42	3400	4.6	1.3	–	Cc1cc(-n2cc(C(=O)N3CCO[C@H](C)C3)c3ccc(O[C@H](C)c4ccc(F)cn4)nc32)[nH]n1 (relative stereo)
6	0.1	2	–	–	Cc1cc(-c2cnc3ccc(N[C@@H](C)c4ccc(F)cc4F)nn23)[nH]n1
27	15	1.2	–	–	Cc1cc(-n2cc(S(C)(=O)=O)c3ccc(N[C@@H](C)c4ccc(F)cc4F)nc32)n[nH]1
69	1400	6.2	3.1	–	Cc1cc(-n2cc(C(=O)N3CCOCC3)c3ccc(OC(C)c4ccc(F)cn4)nc32)[nH]n1 (racemic)
140	< 10	14	–	–	Cc1cc(-n2ccc3ccc(N[C@@H](C)c4ccc(F)cc4F)nc32)[nH]n1
–	< 10	3.2	–	–	COCc1cn(-c2cc(C)n[nH]2)c2nc(OC(C)c3ccc(F)cn3)ccc12 (racemic; 15)
270	1700	18	–	94	Cc1cc(-n2cc(S(=O)(=O)C(C)C)c3ccc(N[C@@H](C)c4ccc(F)cn4)nc32)n[nH]1
–	–	1000	–	–	Cc1cc(-c2cnc3ccc(N[C@H](C)c4ccc(F)cc4F)nn23)[nH]n1
9.4	2.7	1.9	–	–	Cc1cc(-n2cc(C3=CCOCC3)c3ccc(N[C@@H](C)c4ccc(F)cn4)nc32)[nH]n1
37	110	9.6	–	–	CCS(=O)(=O)c1cn(-c2cc(C)[nH]n2)c2nc(N[C@@H](C)c3ccc(F)cn3)ccc12
–	1500	2800	–	–	COCc1cn(-c2cc(C)n[nH]2)c2nc(OC(C)c3ccc(F)cn3)ccc12 (racemic; 16)
37	250	6.1	–	–	Cc1cc(-n2cc(C(=O)N3CCN(C)CC3)c3ccc(N[C@@H](C)c4ccc(F)cn4)nc32)[nH]n1
16	120	1.8	–	67	Cc1cc(-n2cc(C(=O)N(C)C)c3ccc(N[C@@H](C)c4ccc(F)cn4)nc32)[nH]n1
60	730	20	–	–	Cc1cc(-n2cc(S(=O)(=O)C3COC3)c3ccc(N[C@@H](C)c4ccc(F)cn4)nc32)n[nH]1
13	45	3.3	–	–	Cc1cc(-n2cc(S(C)(=O)=O)c3ccc(N[C@@H](C)c4ccc(F)cn4)nc32)n[nH]1

SMILES	IC50 [1] [nM]	IC50 [2] [nM]	IC50 [3] [nM]	efflux ratio at 2 h, 10 µM [4]	Ratio IC50 [5]
Cc1cc(-n2cc(C(=O)N3CCOCC3)c3ccc(N[C@@H](C)c4ccc(F)cn4)nc32)[nH]n1	23	1200	2.5	18	480
